Laboratory results: patent US20240239790A1, “7-Morpholino-1,6-Naphthyridin-5-yl Derivatives and Pharmaceutical Compositions Thereof Useful as DNA-PK Inhibitor” (adMare Therapeutics Society, priority 2021, published 2024)
pEC50: −log10 of the molar value. Where two headings read alike, the source gives them in different places.

Experiments:
HCT116 tumour spheroids = experiment: Spheroid + radiation colony forming cell survival assay (SF), HCT116; format: cell-based; details: Homo sapiens, HCT-116, 8 Gy
Experimental: (§1) Multicellular tumour spheroids determination of compound inhibition of pDNA-PK induction following radiation. Tumour spheroids were grown to approximately 0.5 mm in diameter and irradiated with 20 Gy in combination with inhibitor test compounds to determine their potency. Inhibitor concentration for 50% reduction in pDNA-PK induction (IC50) was determined via immunohistochemical staining in spheroid cryosections taken 2 hours following radiation. For cell survival endpoint 8 Gy radiation was used and 3 hours following radiation spheroids were dissociated, counted and plated for colony forming endpoint.
Spheroid+radiation colony forming cell survival assay (SF). Radiation 8 Gy. Drug: serial dilution 5 μM down to 10 nM (12 wells×2 repeat). Spheroids: 5-10 spheroids per well (300 to 500 μm diameter). HCT116. 5% 02 and 5% CO2. 96 well pate format for assay. Protocol: pre incubate 1 hour with drug, irradiate 8 Gy, post incubate 3 hrs with drug, dissociate spheroids and count cells and plate for colony forming assay. Endpoint: wait 4-7 days and count colonies. Analysis: determine EC50 concentration that increase cell kill by 50% over radiation alone.
(§2) Multicellular tumour spheroids were used to determine potency of test compounds in a 3D tissue environment using inhibition of pDNA-PK induction following radiation or cell survival as the endpoint. For the pDNA-PK endpoint HCT116 or FaDU tumour spheroids were grown to approximately 0.5 mm in diameter and irradiated with 20 Gy in combination with inhibitor test compounds to determine their potency. Experiments were carried out in 96 well plates containing 0.7 mls of MEM media containing 10% FBS and 10 mM glucose under 20% O2 & 5% CO2 at 37° C. Following dilution of compounds 1:1000 from DMSO stocks, compounds were serially diluted from 10 μM down to 3.5 nM and 5-10 spheroids added. 96 well plates were constantly stirred to avoid spheroids settling during the course of the experiment. The inhibitor concentration for 50% reduction in pDNA-PK induction (EC50) was determined via immunohistochemical staining in spheroid cryosections taken 2 hours following radiation using anti-pDNA-PK (ser 2056) and fixed immediately in formalin following sectioning. For cell survival endpoint 8 Gy radiation was used and, 3 hours following radiation, spheroids were dissociated, counted and plated for colony forming endpoint. Data presented in the table compound potency as EC50 [μM].

[1] = tested on: pDNA-PK induction in FaDU tumour spheroids; experiment: Multicellular tumour spheroid + radiation, pDNA-PK (ser2056) inhibition, immunohistochemical endpoint, FaDU; format: cell-based; details: Homo sapiens, 20 Gy
Experimental: as §1
Spheroid+radiation pDNA-PK. Radiation: 20 Gy. Drug: serial dilution 5 or 10 μM down to 3.5 nM (11 wells). Spheroids: 3-6 spheroids per well (300-500 μm diameter). 20% 02 and 5% CO2. 96 well plate format. Endpoint: fluorescent immunostain pDNA-PK ser2056 and image on microscope. Analysis: determine EC50 concentrations that decreases pDNA-PK induction by 50% after irradiation.
as §2

[2] = Pharmacokinetic study in male Beagle dogs (IV and PO), plasma; format: in vivo, dog; details: for AUC—% Extrap—obs / Cl_obs / Vz_obs / AUC(0-t) / half-life / AUC(0-inf) / Cmax: dog plasma; for F: dog; for AUC(0-t) / half-life / AUC(0-inf) / Cmax: male, Beagle; for AUC(0-inf): read-out: AUCINF—obs; for Cmax: read-out: Cmax (5 min)
Experimental: Pharmacokinetic studies were conducted to estimate plasma concentrations obtained after oral gavage (PO) and intravenous (IV) single administration of compounds administered to separate groups of male Beagle dogs. Three (3) dogs were administered a compound via the intravenous (IV) route at 3 mg/kg and 2.5 mL/kg, and plasma was collected at 12 timepoints over a 24-hour period. Following a 7 days washout period, the same dogs were administered the same compound via PO at 10 mg/kg and 5 mL/kg, and plasma was collected at 12 timepoints over a 48-hour period.
The in-vivo study plasma samples were analyzed using Ultra Performance Liquid Chromatography (UPLC) with tandem mass spectrometry (MS/MS) detection in multiple reaction monitoring (MRM) mode. A generic bioanalytical method involving plasma sample extraction and cleanup by protein precipitation with acetonitrile was used followed by UPLC-MS/MS analysis.
A brief example of a generic bioanalytical UPLC-MS/MS method used for analysis of compounds in the in-vivo study plasma samples is as follows. Plasma samples were spiked with internal standard prior to extraction and cleanup by protein precipitation with ice cold acetonitrile containing 0.1% (v/v) ammonium hydroxide at a ratio of 3:1 (solvent:plasma) and centrifuged at 18213 rcf for 15 minutes at 4° C. to pellet precipitates. Aliquots of supernatants were transferred to a 96-well plate and evaporated to dryness at 40° C. under a stream of nitrogen gas. Samples were reconstituted in 50:50 acetonitrile/10 mM ammonium acetate buffer pH 8, mixed thoroughly and analyzed using Ultra Performance Liquid Chromatography (UPLC) with tandem mass spectrometry (MS/MS) detection in multiple reaction monitoring (MRM) mode. Matrix-matched calibration standards and quality control (QC) samples were prepared in naïve C57Bl/6 mouse plasma. The UPLC column used was Waters Acquity UPLC BEH C18 1.7 um, 2.1 mm×50 mm (with guard column). The UPLC mobile phase consisted of: Mobile phase A: 10 mM ammonium acetate in Water pH 8, and Mobile phase B: Acetonitrile. Separation was accomplished with a linear gradient of 5% mobile phase B to 95% mobile phase B in 2 min, and a flow rate of 0.35 mL/min. The MS/MS data acquisition was accomplished using 3 MRM Transitions in ESI+ mode. Parent ion mass 508.37 m/z-to-Daughter ions (m/z) 117.05, 232.13 and 270.22. The quantitation of concentrations in test samples was achieved by matrix-matched calibration with normalization using an internal standard. Data acquisition and analysis were performed using Waters MassLynx software with TargetLynx application manager.
Estimation of PK parameters was performed using independent noncompartmental model method by PHOENIX WinNonlin software.

[3] = plated 3 hours following radiation, Example 9 Study 2, read-out: Spheroid Cell line: HCT116 Colony forming endpoint Surviving Fraction EC50
[4] = spheroids, 5% O2, concentration that increases cell kill by 50% over radiation alone, Example 8, read-out: Cell line: HCT116 Colony forming endpoint Surviving Fraction EC50
[5] = 2 hours following radiation, 20% O2, Example 9 Study 2, read-out: Spheroid Cell line: FaDU Immunohistochemical endpoint pDNA-PK inhibition EC50
[6] = 2 h, spheroids, 20% O2, Example 8, read-out: Cell line: FaDU Immunohistochemical endpoint pDNA-PK inhibition EC50

Compound `CN(C)C(=O)COc1cnc(N[C@H]2CC[C@@H](Oc3nc(N4CCOCC4)cc4ncccc34)CC2)nc1` [Compound 54, N,N-Dimethyl-2-((2-(((1s,4s)-4-((7-morpholino-1,6-naphthyridin-5-yl)oxy)cyclohexyl)amino)pyrimidin-5-yl)oxy)acetamide] has a pEC50 (HCT116 tumour spheroids; [3]) of 6.30 to 8.00, a pEC50 (HCT116 tumour spheroids; [4]) of 6.30 to 8.00 and a pEC50 [1, 5] of 6.30 to 8.00. For the same compound, the pEC50 [1, 6] was 6.30 to 8.00.

With `O=C(COc1cnc(N[C@H]2CC[C@@H](Oc3nc(N4CCOCC4)cc4ncccc34)CC2)nc1)N1CCOCC1` [Compound 61, 1-Morpholino-2-((2-(((1s,4s)-4-((7-morpholino-1,6-naphthyridin-5-yl)oxy)cyclohexyl)amino)pyrimidin-5-yl)oxy)ethan-1-one] the “AUC—% Extrap—obs” value ([2]; IV, 3 mg/kg) was 0.79%, the Cl_obs ([2]; IV, 3 mg/kg) was 14.338 mL/min/kg and the Vz_obs ([2]; IV, 3 mg/kg) was 4.48058 L/kg. For the same compound, the “AUC—% Extrap—obs” value ([2]; PO, 10 mg/kg) was 0.78%, the Cl_obs ([2]; PO, 10 mg/kg) was 35.8008 mL/min/kg and the Vz_obs ([2]; PO, 10 mg/kg) was 11.52897 L/kg. It also gave an F ([2]; PO, 10 mg/kg) of 46%, an AUC(0-t) ([2]; IV, 3 mg/kg) of 3480 ng·h/mL and a half-life ([2]; IV, 3 mg/kg) of 3.64 h. For the same compound, the AUC(0-inf) ([2]; IV, 3 mg/kg) was 3500 ng·h/mL, the Cmax ([2]; IV, 3 mg/kg) was 3700 ng/mL and the AUC(0-t) ([2]; PO, 10 mg/kg) was 5300 ng·h/mL. For the same compound, the half-life ([2]; PO, 10 mg/kg) was 4.39 h, the AUC(0-inf) ([2]; PO, 10 mg/kg) was 5340 ng·h/mL and the Cmax ([2]; PO, 10 mg/kg) was 1070 ng/mL.

In the case of `CN(C)CCOc1cnc(N[C@H]2CC[C@@H](Oc3nc(N4CCOCC4)cc4ncccc34)CC2)nc1` [Compound 64, 5-(2-(Dimethylamino)ethoxy)-N-((1s,4s)-4-((7-morpholino-1,6-naphthyridin-5-yl)oxy)cyclohexyl)pyrimidin-2-amine], the pEC50 (HCT116 tumour spheroids; [3]) was 6.30 to 8.00, the pEC50 (HCT116 tumour spheroids; [4]) was 6.30 to 8.00 and the pEC50 [1, 5] was 6.30 to 8.00. It also gave a pEC50 [1, 6] of 6.30 to 8.00.

For `CN1CCN(CCOc2cnc(N[C@H]3CC[C@@H](Oc4nc(N5CCOCC5)cc5ncccc45)CC3)nc2)CC1` [Compound 69, 5-(2-(4-Methylpiperazin-1-yl)ethoxy)-N-((1s,4s)-4-((7-morpholino-1,6-naphthyridin-5-yl)oxy)cyclohexyl)pyrimidin-2-amine], the “AUC—% Extrap—obs” value ([2]; IV, 3 mg/kg) was 23.94%, the Cl_obs ([2]; IV, 3 mg/kg) was 32.4562 mL/min/kg and the Vz_obs ([2]; IV, 3 mg/kg) was 37.41197 L/kg. The “AUC—% Extrap—obs” value ([2]; PO, 10 mg/kg) was 9.05%, the Cl_obs ([2]; PO, 10 mg/kg) was 27.6643 mL/min/kg and the Vz_obs ([2]; PO, 10 mg/kg) was 32.69379 L/kg. For the same compound, the F ([2]; PO, 10 mg/kg) was 143%, the AUC(0-t) ([2]; IV, 3 mg/kg) was 1180 ng·h/mL and the half-life ([2]; IV, 3 mg/kg) was 13.3 h. For the same compound, the AUC(0-inf) ([2]; IV, 3 mg/kg) was 1560 ng·h/mL, the Cmax ([2]; IV, 3 mg/kg) was 397 ng/mL and the AUC(0-t) ([2]; PO, 10 mg/kg) was 5640 ng·h/mL. For the same compound, the half-life ([2]; PO, 10 mg/kg) was 13.8 h, the AUC(0-inf) ([2]; PO, 10 mg/kg) was 6220 ng·h/mL and the Cmax ([2]; PO, 10 mg/kg) was 291 ng/mL.

In the case of `CN(C)C(=O)Cn1ccc2nc(N[C@H]3CC[C@@H](Oc4nc(N5CCOCC5)cc5ncccc45)CC3)ncc21` [Compound 86, N,N-Dimethyl-2-(2-(((1s,4s)-4-((7-morpholino-1,6-naphthyridin-5-yl)oxy)cyclohexyl)amino)-5H-pyrrolo[3,2-d]pyrimidin-5-yl)acetamide], the “AUC—% Extrap—obs” value ([2]; IV, 3 mg/kg) was 5.80%, the Cl_obs ([2]; IV, 3 mg/kg) was 28.2873 mL/min/kg and the Vz_obs ([2]; IV, 3 mg/kg) was 28.9956 L/kg. The “AUC—% Extrap—obs” value ([2]; PO, 10 mg/kg) was 0.51%, the Cl_obs ([2]; PO, 10 mg/kg) was 28.6397 mL/min/kg and the Vz_obs ([2]; PO, 10 mg/kg) was 6.54871 L/kg. For the same compound, the F ([2]; PO, 10 mg/kg) was 105%, the AUC(0-t) ([2]; IV, 3 mg/kg) was 1730 ng·h/mL and the half-life ([2]; IV, 3 mg/kg) was 13.1 h. It also gave an AUC(0-inf) ([2]; IV, 3 mg/kg) of 1850 ng·h/mL, a Cmax ([2]; IV, 3 mg/kg) of 1730 ng/mL and an AUC(0-t) ([2]; PO, 10 mg/kg) of 6090 ng·h/mL. The half-life ([2]; PO, 10 mg/kg) was 2.62 h, the AUC(0-inf) ([2]; PO, 10 mg/kg) was 6130 ng·h/mL and the Cmax ([2]; PO, 10 mg/kg) was 1540 ng/mL.

In the case of `O=C(O)c1cnc2cc(N3CCOCC3)nc(O[C@H]3CC[C@@H](n4ccnc4)CC3)c2c1` [Compound 165, 5-(((1s,4s)-4-(1H-imidazol-1-yl)cyclohexyl)oxy)-7-morpholino-1,6-naphthyridine-3-carboxylic acid], the pEC50 (HCT116 tumour spheroids; [3]) was 4.00 to 5.00 and the pEC50 (HCT116 tumour spheroids; [4]) was 4.00 to 5.00.

In the case of `O=C(NO)c1cnc2cc(N3CCOCC3)nc(O[C@H]3CC[C@@H](n4ccnc4)CC3)c2c1` [Compound 172, 5-(((1s,4s)-4-(1H-imidazol-1-yl)cyclohexyl)oxy)-N-hydroxy-7-morpholino-1,6-naphthyridine-3-carboxamide], the pEC50 [1, 5] was 5.00 to 6.00 and the pEC50 [1, 6] was 5.00 to 6.00.

In the case of `CS(=O)(=O)NC(=O)c1cnc2cc(N3CCOCC3)nc(O[C@H]3CC[C@@H](n4ccnc4)CC3)c2c1` [Compound 175, 5-(((1s,4s)-4-(1H-imidazol-1-yl)cyclohexyl)oxy)-N-(methylsulfonyl)-7-morpholino-1,6-naphthyridine-3-carboxamide], the pEC50 (HCT116 tumour spheroids; [3]) was 4.00 to 5.00 and the pEC50 (HCT116 tumour spheroids; [4]) was 4.00 to 5.00.
